Experiments:
[1] = system: RA-specific antibodies (4 anti-CCP2-positive sera); assay: Indirect (inhibition) ELISA: cross-reactivity of analytes with RA-specific antibodies, immobilized CCP2 as capture antigen; assay type: binding, human; set-up: Cross-reactivity of antibodies with the named analyte: concentration or dose not given beside the values; conditions: for Cross-reactivity (%) of RA-specific antibody, modified α-amino acid: alkylation + acetylation: acetylated amino acid methyl ester of the amino acid named; for Cross-reactivity (%) of RA-specific antibody, modified α-amino acid: acetylation: acetylated derivative of the amino acid named; for Cross-reactivity of antibodies with the named analyte: the analyte itself is named; for Cross-reactivity (%) of RA-specific antibody, α-amino acid: unmodified α-amino acid, 0 = cross-reactivity less than 1%
From the text: A complete set of 21 amino acids and their derivatives were used as analytes to determine if any analyte inhibited the action of the detector antibody in binding to the capture antigen. Determination was made by observation at the single AA level through a series of moving windows of different derivatization. Following this procedure ensures that no antigenic elements of the epitope are missed as long as the possible AA derivatives are available. The analysis began in the fluid phase, wherein initially, the detector antibody was incubated with each of the analytes. After overnight incubation at 4° C., 100 μl of analyte preadsorbed detector antibody per well were added into 96-well microplate which immobilized CCP2 on the surface, and was incubated for 1 hour at room temperature with shaking. […] The reaction was stopped by adding 100 μl of 0.5 M H2SO4 per well and the results were estimated at A450 nm.
The concept of indirect ELISA was based upon an inhibition test between an unknown amount of analyte and a known amount of immobilized antigen for a limited number of detector antibody binding-sites. If the contents of detector antibody and immobilized antigen are kept constant, the distribution of detector antibody between immobilized antigen bound detector antibody and analyte bound detector antibody is dependent upon the amount of sample analyte. The mass of immobilized antigen bound detector antibody is inversely proportional to the amount of analyte bound detector antibody.
As described in FIG. 1, Amino Acid Profiles for the Antigenic Determinant, ELISA was carried out with sera from Euro-diagnostica (serum 1) and from three patients (serum 2, 3, and 4) with RA to CCP2 positive at various concentrations of different amino acids. […] The horizontal line at 100% represents the control percent binding of the CCP2 to the antibody.
As described in FIG. 2, Acetylamino Acid Profiles for the Antigenic Determinant, ELISA was carried out with sera from Euro-diagnostica (serum 1) and from three patients (serum 2, 3, and 4) with RA to CCP2 positive at various concentrations of different acetylamino acids. […] The horizontal line at 100% represents the control percent binding of the CCP2 to the antibody.
As described in FIG. 3, Alkylamino Acid Profiles for the Antigenic Determinant, ELISA was carried out with sera from Euro-diagnostica (serum 1) and from three patients (serum 2, 3, and 4) with RA to CCP2 positive at various concentrations of different alkylamino acids. […] The horizontal line at 100% represents the control percent binding of the CCP2 to the antibody.
As described in FIG. 4, Acetylamino Acid Methyl Ester Profiles for the Antigenic Determinant, ELISA was carried out with sera from Euro-diagnostica (serum 1) and from three patients (serum 2, 3, and 4) with RA to CCP2 positive at various concentrations of different acetylamino acid methyl esters. […] The horizontal line at 100% represents the control percent binding of the CCP2 to the antibody.

[2] = system: RA-specific antibodies (4 anti-CCP2-positive sera); assay: as above; assay type: binding, human; conditions: unpublished epitope mapping studies; result in words
[3] = methyl esterified (Me) derivative of the amino acid named, 0 = less than 1%

SMILES | Inhibition of antibody binding to the immobilized CCP2 ([1]; FIG. 1 and 2, analyte at 50 mM, 4 sera, result in words) | Cross-reactivity (%) of RA-specific antibody, modified α-amino acid: alkylation + acetylation ([1]; 0 = less than 1%) [%] | Cross-reactivity (%) of RA-specific antibody, modified α-amino acid: acetylation ([1]; 0 = less than 1%) [%] | Cross-reactivity (%) of RA-specific antibody, modified α-amino acid: alkylation ([1]; butyl esterified (Be) derivative) | Cross-reactivity (%) of RA-specific antibody, modified α-amino acid: alkylation ([1]; ethyl esterified (Ee) derivative) | Cross-reactivity (%) of RA-specific antibody, modified α-amino acid: alkylation [1, 3] | Cross-reactivity (%) of RA-specific antibody, modified α-amino acid: alkylation ([1]; propyl esterified (Pe) derivative) | Cross-reactivity of antibodies with the named analyte [1] | Cross-reactivity (%) of RA-specific antibody, α-amino acid [1] [%] | Binding of RA-specific antibodies [2]
NC(=O)NCCC[C@H](N)C(=O)O [Citrulline] | limited capability to inhibit | 100 | 74 | ^Be124% | ^Ee72% | ^Me81% | ^Pe115% | zero | 0 | does not bind
N[C@@H](Cc1ccc(O)cc1)C(=O)O [Tyrosine] | – | 0 | 0 | – | – | ^Me0% | – | – | 0 | –
NC(=O)CC[C@H](N)C(=O)O [Glutamine] | – | 0 | 0 | – | – | ^Me0% | – | – | 0 | –
COC(=O)[C@H](CS)NC(C)=O [acetyl-Cys-Me] | – | – | – | – | – | – | – | 57% | – | –
C[C@H](N)C(=O)O [Alanine] | – | 0 | 0 | – | – | ^Me0% | – | – | 0 | –
N[C@@H](CCC(=O)O)C(=O)O [Glutamic acid] | – | 0 | 0 | – | – | ^Me0% | – | – | 0 | –
O=C(O)[C@@H]1CCCN1 [Proline] | – | 0 | 0 | – | – | ^Me0% | – | – | 0 | –
COC(=O)[C@H](CO)NC(C)=O [acetyl-Ser-Me] | – | – | – | – | – | – | – | 0% | – | –

Source: patent publication US8323656B2, “Antigen determinant of rheumatoid arthritis-specific autoantibody and use thereof” (priority 2007, dated 2012)
